Reference: ChEMBL document CHEMBL2163215, “Mitigating hERG Inhibition: Design of Orally Bioavailable CCR5 Antagonists as Potent Inhibitors of R5 HIV-1 Replication” (ACS Med Chem Lett, 2012)
pIC50: −log10 of the molar value. Blank lines part the entries; values can stand above or below the compound they belong to. The source made the active and inactive calls. No cut-off for these calls is given here.

Legend:
Plasma = assay: (§1) Fraction unbound in human plasma after 5 hrs; settings: 5 h
hERG (KCNH2) = hERG (KCNH2) (Homo sapiens, UniProt Q12809); assay: Inhibition of human recombinant hERG expressed in CHO cells at 10 uM by automated patch clamp assay; settings: CHO cells expressing human recombinant hERG
Sequence of hERG (KCNH2) (Q12809 whole entry): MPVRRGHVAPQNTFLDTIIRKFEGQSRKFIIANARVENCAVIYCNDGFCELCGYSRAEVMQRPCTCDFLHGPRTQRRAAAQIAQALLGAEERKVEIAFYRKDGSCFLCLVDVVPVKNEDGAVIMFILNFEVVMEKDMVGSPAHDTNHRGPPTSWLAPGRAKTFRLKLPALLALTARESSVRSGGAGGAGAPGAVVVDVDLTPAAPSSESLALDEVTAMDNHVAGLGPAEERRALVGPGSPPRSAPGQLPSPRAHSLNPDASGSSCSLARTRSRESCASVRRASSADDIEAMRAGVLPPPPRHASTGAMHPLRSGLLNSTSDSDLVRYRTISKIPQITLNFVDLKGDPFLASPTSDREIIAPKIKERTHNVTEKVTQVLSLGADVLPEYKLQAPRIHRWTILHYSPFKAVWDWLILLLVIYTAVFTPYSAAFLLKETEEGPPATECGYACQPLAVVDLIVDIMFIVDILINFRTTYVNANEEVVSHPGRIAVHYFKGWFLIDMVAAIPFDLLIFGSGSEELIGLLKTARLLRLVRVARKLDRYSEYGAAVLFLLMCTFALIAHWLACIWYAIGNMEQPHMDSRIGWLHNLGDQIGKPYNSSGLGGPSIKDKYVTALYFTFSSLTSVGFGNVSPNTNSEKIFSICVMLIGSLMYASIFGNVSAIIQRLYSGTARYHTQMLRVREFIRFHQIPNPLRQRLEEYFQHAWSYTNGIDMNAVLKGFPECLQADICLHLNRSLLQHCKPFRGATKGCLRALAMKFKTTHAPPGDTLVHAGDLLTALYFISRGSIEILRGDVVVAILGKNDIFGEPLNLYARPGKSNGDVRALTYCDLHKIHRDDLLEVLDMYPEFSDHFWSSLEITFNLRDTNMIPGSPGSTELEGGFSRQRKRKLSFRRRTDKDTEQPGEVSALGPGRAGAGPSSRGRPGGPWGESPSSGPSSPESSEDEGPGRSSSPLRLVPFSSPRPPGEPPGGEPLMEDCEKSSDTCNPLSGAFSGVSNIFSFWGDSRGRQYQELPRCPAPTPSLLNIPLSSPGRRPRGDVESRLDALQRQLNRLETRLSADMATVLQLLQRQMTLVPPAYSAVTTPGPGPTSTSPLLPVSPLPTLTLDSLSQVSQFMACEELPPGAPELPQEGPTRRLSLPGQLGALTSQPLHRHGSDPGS

[1] = Cytotoxicity against human PBMC
[2] = tested on: Human immunodeficiency virus 1; assay: Antiviral activity against R5 tropic HIV1 Ba-L infected human PBMC assessed as inhibition of viral replication by p-24 antigen specific ELISA; format: functional, organism-based; settings: Human immunodeficiency virus 1, Ba-L
[3] = as §1
in vivo [4] = settings: dog, po
in vivo [5] = settings: dog, plasma
in vivo [6] = settings: dog, po, 12.5 umol/kg
Description: Oral bioavailability in dog at 12.5 umol/kg

[7] = Clearance in dog at 5 umol/kg, iv; settings: in vivo
[8] = Volume of distribution in dog at 5 umol/kg, iv; settings: in vivo
[9] = molecular target: Voltage-gated inwardly rectifying potassium channel KCNH2 (Homo sapiens, UniProt Q12809); assay: Inhibition of human recombinant hERG expressed in CHO cells by automated patch clamp assay
Sequence of Voltage-gated inwardly rectifying potassium channel KCNH2 (Q12809 whole entry): as above

[10] = molecular target: T1, C-C chemokine receptor type 4 (Homo sapiens) (UniProt P51679); settings: at 5 µM
T1 sequence (whole entry): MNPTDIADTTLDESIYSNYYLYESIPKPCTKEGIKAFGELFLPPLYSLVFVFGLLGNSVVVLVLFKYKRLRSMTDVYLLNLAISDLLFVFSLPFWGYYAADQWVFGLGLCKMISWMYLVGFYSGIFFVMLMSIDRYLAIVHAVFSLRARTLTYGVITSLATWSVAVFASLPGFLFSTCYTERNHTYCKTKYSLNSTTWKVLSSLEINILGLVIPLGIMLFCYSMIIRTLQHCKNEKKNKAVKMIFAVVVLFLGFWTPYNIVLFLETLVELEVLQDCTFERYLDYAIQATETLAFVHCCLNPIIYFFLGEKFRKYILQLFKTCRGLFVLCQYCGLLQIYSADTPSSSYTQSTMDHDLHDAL
Description: Antagonist activity at CCR4 at 5 uM by calcium flux assay

[11] = molecular target: T2, C-X-C chemokine receptor type 2 (Homo sapiens) (UniProt P25025); settings: at 5 µM
T2 sequence (whole entry): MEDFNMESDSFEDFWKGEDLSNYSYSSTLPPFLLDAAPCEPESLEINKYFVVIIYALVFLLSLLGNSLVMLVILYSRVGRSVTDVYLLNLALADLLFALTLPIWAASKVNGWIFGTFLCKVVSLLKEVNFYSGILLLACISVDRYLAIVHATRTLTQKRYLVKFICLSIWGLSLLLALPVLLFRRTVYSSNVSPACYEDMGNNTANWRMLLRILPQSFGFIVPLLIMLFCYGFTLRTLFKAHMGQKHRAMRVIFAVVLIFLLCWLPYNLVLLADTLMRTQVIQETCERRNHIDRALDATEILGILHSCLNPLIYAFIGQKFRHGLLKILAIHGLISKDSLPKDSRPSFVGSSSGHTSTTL
Description: Antagonist activity at CXCR2 at 5 uM by calcium flux assay

[12] = molecular target: C-C chemokine receptor type 2 (Homo sapiens) (UniProt P41597); settings: at 5 µM
Sequence of C-C chemokine receptor type 2 (Homo sapiens) (P41597 whole entry, looked up): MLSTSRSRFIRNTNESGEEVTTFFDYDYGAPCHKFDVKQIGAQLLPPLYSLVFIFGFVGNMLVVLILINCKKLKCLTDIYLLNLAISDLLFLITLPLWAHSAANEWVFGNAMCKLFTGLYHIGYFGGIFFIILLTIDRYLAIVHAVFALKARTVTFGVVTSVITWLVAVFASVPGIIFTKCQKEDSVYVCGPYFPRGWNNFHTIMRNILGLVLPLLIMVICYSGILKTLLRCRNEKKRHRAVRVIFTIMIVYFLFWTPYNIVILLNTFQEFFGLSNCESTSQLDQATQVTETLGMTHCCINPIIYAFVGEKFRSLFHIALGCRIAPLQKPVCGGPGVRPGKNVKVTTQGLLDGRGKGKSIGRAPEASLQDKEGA
Description: Antagonist activity at CCR2b at 5 uM by calcium flux assay

[13] = molecular target: C-X-C chemokine receptor type 4 (Homo sapiens) (UniProt P61073); settings: at 5 µM
Sequence of C-X-C chemokine receptor type 4 (Homo sapiens) (P61073 whole entry): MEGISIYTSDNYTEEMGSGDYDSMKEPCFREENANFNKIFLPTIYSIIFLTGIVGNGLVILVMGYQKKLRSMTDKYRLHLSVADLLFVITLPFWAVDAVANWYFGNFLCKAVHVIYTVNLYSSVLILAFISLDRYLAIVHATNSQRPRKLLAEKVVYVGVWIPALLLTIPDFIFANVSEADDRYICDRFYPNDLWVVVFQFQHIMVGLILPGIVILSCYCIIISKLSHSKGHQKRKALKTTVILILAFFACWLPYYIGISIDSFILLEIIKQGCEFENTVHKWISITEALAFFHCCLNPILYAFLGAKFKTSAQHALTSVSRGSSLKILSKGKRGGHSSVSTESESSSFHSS
Description: Antagonist activity at CXCR4 at 5 uM by calcium flux assay

[14] = molecular target: T3, C-X-C chemokine receptor type 1 (Homo sapiens) (UniProt P25024); settings: at 5 µM
T3 sequence (whole entry): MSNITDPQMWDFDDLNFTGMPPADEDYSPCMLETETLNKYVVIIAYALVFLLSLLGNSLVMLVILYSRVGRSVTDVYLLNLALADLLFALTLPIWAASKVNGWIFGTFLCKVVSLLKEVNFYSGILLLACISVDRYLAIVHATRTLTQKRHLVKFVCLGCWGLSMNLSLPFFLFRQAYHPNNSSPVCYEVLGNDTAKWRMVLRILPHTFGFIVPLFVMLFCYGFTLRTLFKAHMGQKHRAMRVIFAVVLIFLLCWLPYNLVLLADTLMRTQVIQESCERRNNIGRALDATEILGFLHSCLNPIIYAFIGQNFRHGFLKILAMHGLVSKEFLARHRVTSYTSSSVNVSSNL
Description: Antagonist activity at CXCR1 at 5 uM by calcium flux assay

[15] = molecular target: T4, C-C chemokine receptor type 1 (Homo sapiens) (UniProt P32246); settings: at 5 µM
T4 sequence (whole entry): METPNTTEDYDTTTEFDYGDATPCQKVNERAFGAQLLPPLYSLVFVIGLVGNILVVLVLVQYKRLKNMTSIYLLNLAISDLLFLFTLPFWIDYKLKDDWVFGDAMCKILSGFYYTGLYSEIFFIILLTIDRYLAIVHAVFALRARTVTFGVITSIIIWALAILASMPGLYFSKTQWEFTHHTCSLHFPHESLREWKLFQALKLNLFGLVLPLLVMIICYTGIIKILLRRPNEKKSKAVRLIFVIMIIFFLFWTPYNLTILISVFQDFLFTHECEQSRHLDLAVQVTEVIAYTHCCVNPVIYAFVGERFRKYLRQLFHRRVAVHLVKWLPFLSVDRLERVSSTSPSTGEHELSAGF
Description: Antagonist activity at CCR1 at 5 uM by calcium flux assay

[16] = Half life in dog at 5 umol/kg, iv; settings: in vivo
[17] = Cardiotoxicity in dog purkinje fiber assessed as change in resting membrane potential at 10 uM measured at basic cycle length of 2 seconds
[18] = Toxicity in rat administered for 7 days; settings: in vivo
[19] = Cardiotoxicity in dog purkinje fiber assessed as change in action potential duration at 90% at 10 uM measured at basic cycle length of 1 second
[20] = Cardiotoxicity in dog purkinje fiber assessed as change in action potential amplitude at 10 uM measured at basic cycle length of 0.5 seconds
[21] = Cardiotoxicity in dog purkinje fiber assessed as change in action potential duration at 60% at 10 uM measured at basic cycle length of 1 second
[22] = Cardiotoxicity in dog purkinje fiber assessed as change in resting membrane potential at 10 uM measured at basic cycle length of 0.5 seconds
[23] = Cardiotoxicity in dog purkinje fiber assessed as change in action potential amplitude at 10 uM measured at basic cycle length of 2 seconds
[24] = Cardiotoxicity in dog purkinje fiber assessed as change in action potential amplitude at 10 uM measured at basic cycle length of 1 second
[25] = Cardiotoxicity in dog purkinje fiber assessed as change in action potential duration at 60% at 10 uM measured at basic cycle length of 2 seconds
[26] = Cardiotoxicity in dog purkinje fiber assessed as change in action potential duration at 90% at 10 uM measured at basic cycle length of 2 seconds
[27] = Cardiotoxicity in dog purkinje fiber assessed as change in action potential duration at 90% at 10 uM measured at basic cycle length of 0.5 seconds
[28] = Cardiotoxicity in dog purkinje fiber assessed as change in action potential duration at 60% at 10 uM measured at basic cycle length of 0.5 seconds
[29] = Cardiotoxicity in dog purkinje fiber assessed as change in resting membrane potential at 10 uM measured at basic cycle length of 1 second

SMILES: COc1ccc(N(Cc2cnccc2C)C2CCN([C@H](C)CCNC(=O)c3c(C)ncnc3C)CC2)cc1
Fu (Plasma): 83%
inhibition at 10 µM (hERG (KCNH2)): 58%
CC50 [1]: > 38300 nM
pIC50 [2]: 5.74

SMILES: Cc1cc(Cl)nc(C)c1C(=O)NCC[C@@H](C)N1CCC(N(Cc2ccsc2)C(=O)Nc2cccnc2)CC1
fraction unbound at 5 h [3]: 0.46
inhibition at 10 µM (hERG (KCNH2)): 20%
CC50 [1]: > 32400 nM
pIC50 [2]: 7.46

SMILES: CC(=O)N(Cc1ccsc1)C1CCN([C@H](C)CCNC(=O)c2c(C)cc(Cl)nc2C)CC1
pIC50 [2]: 6.86

SMILES: Cc1cc(Cl)nc(C)c1C(=O)NCC[C@@H](C)N1CCC(N(Cc2ccsc2)C(=O)CC2CCOCC2)CC1
fraction unbound at 5 h [3]: 0.8
inhibition at 10 µM (hERG (KCNH2)): 67%
CC50 [1]: > 35600 nM
pIC50 [2]: 7.65

SMILES: COCC(=O)N(Cc1ccsc1)C1CCN([C@H](C)CCNC(=O)c2c(C)cc(Cl)nc2C)CC1
inhibition [10]: inactive
inhibition [11]: inactive
pIC50 [2]: 7.42
inhibition [12]: inactive
inhibition [13]: inactive
inhibition [14]: inactive
inhibition [15]: inactive

SMILES: COc1ccc(N(Cc2ccsc2)C2CCN([C@H](C)CCNC(=O)c3c(C)ncnc3C)CC2)cc1
fraction unbound at 5 h [3]: 0.91
inhibition at 10 µM (hERG (KCNH2)): 97%
CC50 [1]: > 38700 nM
pIC50 [2]: 7.18

SMILES: Cc1cc(Cl)nc(C)c1C(=O)NCC[C@@H](C)N1CCC(N(Cc2ccsc2)C(=O)NO)CC1
fraction unbound at 5 h [3]: 0.4
inhibition at 10 µM (hERG (KCNH2)): 44%
CC50 [1]: > 38500 nM
pIC50 [2]: 6.46

Compounds with a higher pIC50 [2], results first:

fraction unbound at 5 h [3]: 0.75
Cmax (in vivo [4]): 1940 nM
AUC(0-inf) (in vivo [5]): 3.24 µM·h
pIC50 [2]: 8.54
bioavailability (in vivo [6]): 60%
clearance [7]: 39.2 mL/min/kg
Vd [8]: 6.3 L/kg
SMILES: CONC(=O)N(Cc1ccsc1)C1CCN([C@H](C)CCNC(=O)c2c(C)cc(C#N)nc2Cl)CC1
CC50 [1]: > 38500 nM

fraction unbound at 5 h [3]: 0.46
pIC50 [2]: 7.81
SMILES: CNC(=O)N(Cc1ccsc1)C1CCN([C@H](C)CCNC(=O)c2c(C)cc(Cl)nc2C)CC1
inhibition at 10 µM (hERG (KCNH2)): 73%
CC50 [1]: > 40600 nM
pIC50 [9]: 5.80

inhibition [10]: inactive
inhibition [11]: inactive
pIC50 [2]: 7.83
inhibition [12]: inactive
inhibition [13]: inactive
inhibition [14]: inactive
inhibition [15]: inactive
SMILES: CONC(=O)N(Cc1ccsc1)C1CCN([C@H](C)CCNC(=O)c2c(C)cc(Cl)nc2C)CC1

inhibition [10]: inactive
inhibition [11]: inactive
pIC50 [2]: 8.32
inhibition [12]: inactive
inhibition [13]: inactive
inhibition [14]: inactive
inhibition [15]: inactive
SMILES: CONC(=O)N(Cc1ccsc1)C1CCN([C@H](C)CCNC(=O)c2c(C)cc(C(=O)NC(C)C)nc2C)CC1

fraction unbound at 5 h [3]: 0.31
Cmax (in vivo [4]): 260 nM
AUC(0-inf) (in vivo [5]): 0.37 µM·h
half-life [16]: 42 min
pIC50 [2]: 8.14
bioavailability (in vivo [6]): 7%
clearance [7]: 40.3 mL/min/kg
Vd [8]: 2.6 L/kg
SMILES: CONC(=O)N(Cc1ccsc1)C1CCN([C@H](C)CCNC(=O)c2c(C)cc(Cl)[n+]([O-])c2Cl)CC1
inhibition at 10 µM (hERG (KCNH2)): 21%
CC50 [1]: > 38500 nM

fraction unbound at 5 h [3]: 0.85
pIC50 [2]: 7.79
SMILES: Cc1cc(C#N)nc(C)c1C(=O)NCC[C@@H](C)N1CCC(N(Cc2ccsc2)C(=O)CC2CCOCC2)CC1
inhibition at 10 µM (hERG (KCNH2)): 61%
CC50 [1]: > 36200 nM

fraction unbound at 5 h [3]: 0.43
inhibition [10]: inactive
inhibition [11]: inactive
pIC50 [2]: 7.67
inhibition [12]: inactive
inhibition [13]: inactive
inhibition [14]: inactive
inhibition [15]: inactive
SMILES: COCCONC(=O)N(Cc1ccsc1)C1CCN([C@H](C)CCNC(=O)c2c(C)cc(Cl)nc2C)CC1
Activity [17]: -2.7 mV
NOAEL at 168 h [18]: ≥ 400 mg/kg
Activity [19]: 16.5%
CC50 [1]: > 34400 nM
Activity [20]: 1.2 mV
Activity [21]: 18.1%
Activity [22]: -3.6 mV
Activity [23]: 2.4 mV
Activity [24]: 1.3 mV
Activity [25]: 24.2%
Activity [26]: 22.6%
Activity [27]: 10.5%
Activity [28]: 12.2%
Activity [29]: -2.8 mV
